Measured values published in patent US10499645B2, “Nematicidal aqueous suspension concentrate compositions” (Monsanto Technology LLC, priority 2012, dated 2019).

What was measured:
Type in all cases: physicochemical
[1] = Mechanical pressure analysis (CARVER press, XRD); conditions: approximately 15,000 psi for approximately 20 seconds
Description: Batches of 3-phenyl-5-(thiophen-2-yl)-1,2,4-oxadiazole polymorphic Forms I and II were placed in a CARVER press and compressed at approximately 15,000 psi for approximately 20 seconds in two separate experiments. XRD analysis was performed on the samples. The resulting XRD pattern matched the starting material in both experiments, as shown in FIGS. 5A and 5B for Forms I and II, respectively. […] The Form II used in this experiment was obtained by recrystallization from the melt of Form I, as described in Example 14, above.

[2] = Grinding analysis (ball mill, XRD); conditions: ball mill 2 minutes at 4800 oscillations per minute
Description: Batches of 3-phenyl-5-(thiophen-2-yl)-1,2,4-oxadiazole polymorphic Forms I and II were ground using a CRESCENT WIG-L-BUG ball mill for 2 minutes at 4800 oscillations per minute (3.2 m/s) in two separate experiments. […] The Form II used in this experiment was obtained by recrystallization from the melt of Form I, as described in Example 14, above, […]

[3] = Storage stability of polymorphs (XRD)
[4] = Non-competitive slurry experiments (XRD); conditions: ambient temperature
Description: In addition to the solvent recrystallization experiments, non-competitive slurry experiments were performed to search for new solid-state forms of 3-phenyl-5-(thiophen-2-yl)-1,2,4-oxadiazole. These experiments rely on solubility differences of different polymorphic forms (if the compound exists in different polymorphic forms).
Essentially, when a solid is mixed with solvent to create slurry, a saturated solution eventually results. The solution is saturated with respect to the polymorphic form dissolved. […] In addition, noncompetitive slurry experiments are often useful in identifying solvents that form solvates with the compound.
The slurry experiments were performed by exposing excess supplied material to solvents and agitating the resulting suspensions for several days at ambient temperature. The solids were filtered using a WHATMAN Grade 1 apparatus (11 μm pore size) and analyzed by XRD to determine the resulting form(s). To avoid possible desolvation or physical change after isolation, the samples were not dried before X-ray analysis.

SMILES | change of polymorphic form under pressure [1] | polymorphic transformation on grinding [2] | storage stability / hydrate formation (XRD) ([3]; 75 and 84% RH, ambient temperature, 4 weeks, open Petri dishes) | form resulting from slurry experiments (summary) ([4]; approximately 12 days of slurring) | storage stability (XRD) ([3]; scintillation vial in a hood, ambient conditions, approximately 6 days) | form resulting from slurry experiments (summary) ([4]; approximately 7 days of slurring)
c1ccc(-c2noc(-c3cccs3)n2)cc1 [Form I, 3-phenyl-5-(thiophen-2-yl)-1,2,4-oxadiazole] | did not reveal any changes in the polymorphic form | no transformation | does not form a hydrate and appears to be thermodynamically stable over time at ambient conditions | Form I | – | –
c1ccc(-c2noc(-c3cccs3)n2)cc1 [Form II, 3-phenyl-5-(thiophen-2-yl)-1,2,4-oxadiazole] | did not reveal any changes in the polymorphic form | transformed to Form I | – | – | showed signs of transformation to Form I | Form I
